Key:
[1] = double-blind multicenter clinical trial, olanzapine versus placebo; type: in vivo; details: patients randomized to olanzapine or placebo
Text: A double-blind multicenter clinical trial was designed to assess the safety and efficacy of olanzapine. Patients were randomized to olanzapine or placebo.

5-HT1C receptor = molecular target: T1, 5-HT1C receptor (Homo sapiens, UniProt P28335); assay: pharmacological studies, 5-HT1C receptor activity
T1 sequence (P28335 33-458): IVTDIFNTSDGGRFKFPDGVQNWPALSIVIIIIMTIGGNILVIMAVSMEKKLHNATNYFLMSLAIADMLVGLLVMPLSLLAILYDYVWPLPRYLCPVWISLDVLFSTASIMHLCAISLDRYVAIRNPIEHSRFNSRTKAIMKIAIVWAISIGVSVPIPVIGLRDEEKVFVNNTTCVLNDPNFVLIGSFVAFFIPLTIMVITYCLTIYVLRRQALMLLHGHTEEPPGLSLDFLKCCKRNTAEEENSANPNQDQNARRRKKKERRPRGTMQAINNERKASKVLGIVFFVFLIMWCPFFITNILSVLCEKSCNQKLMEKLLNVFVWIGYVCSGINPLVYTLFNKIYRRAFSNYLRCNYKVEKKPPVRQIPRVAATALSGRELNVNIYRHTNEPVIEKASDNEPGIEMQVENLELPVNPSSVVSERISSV

[2] = tested on: muscarinic cholinergic receptor; assay: pharmacological studies, muscarinic receptor activity

Cc1cc2c(s1)Nc1ccccc1N=C2N1CCN(C)CC1 [olanzapine, 2-methyl-4-(4-methyl-1-piperazinyl)-10H-thieno[2,3-b][1,5] benzodiazepine]
usefulness for the treatment of autism [1]: can be useful for the treatment of autism | usefulness for the treatment of mental retardation [1]: can be useful for the treatment of mental retardation | activity at the 5-HT1C receptor (5-HT1C receptor): active | muscarinic cholinergic receptor activity [2]: has muscarinic cholinergic receptor activity

From patent EP0946179B1 (ELI LILLY AND COMPANY, priority 1996, dated 1997)
